Values belong to the molecule of their own block, whether it stands above or below them.
What was measured:
[1] = target: T1, Metabotropic glutamate receptor 7 (Homo sapiens, UniProt Q14831); assay: Agonist activity at mGlu7 (unknown origin)
[2] = target: Metabotropic glutamate receptor 4 (Homo sapiens, UniProt Q14833); assay: Agonist activity at mGlu4 (unknown origin)
[3] = target: T1, Metabotropic glutamate receptor 7; assay: Agonist activity at human mGlu7 expressed in CHO cells assessed as reduction in forskolin-induced cAMP production; assay type: functional, cell-based
[4] = target: Metabotropic glutamate receptor 8 (Rattus norvegicus, UniProt P70579); assay: Agonist activity at rat mGlu8 receptor expressed in HEK cell co-expressing Galpha15 (unknown origin) assessed as […] intracellular Ca2+ mobilization by Fluo-4-AM dye based fluorescence assay; assay type: functional
[5] = target: Metabotropic glutamate receptor 2 (Homo sapiens, UniProt Q14416); assay: Allosteric activity at mGlu2 (unknown origin)
Chain of Metabotropic glutamate receptor 2 (Q14416 whole entry): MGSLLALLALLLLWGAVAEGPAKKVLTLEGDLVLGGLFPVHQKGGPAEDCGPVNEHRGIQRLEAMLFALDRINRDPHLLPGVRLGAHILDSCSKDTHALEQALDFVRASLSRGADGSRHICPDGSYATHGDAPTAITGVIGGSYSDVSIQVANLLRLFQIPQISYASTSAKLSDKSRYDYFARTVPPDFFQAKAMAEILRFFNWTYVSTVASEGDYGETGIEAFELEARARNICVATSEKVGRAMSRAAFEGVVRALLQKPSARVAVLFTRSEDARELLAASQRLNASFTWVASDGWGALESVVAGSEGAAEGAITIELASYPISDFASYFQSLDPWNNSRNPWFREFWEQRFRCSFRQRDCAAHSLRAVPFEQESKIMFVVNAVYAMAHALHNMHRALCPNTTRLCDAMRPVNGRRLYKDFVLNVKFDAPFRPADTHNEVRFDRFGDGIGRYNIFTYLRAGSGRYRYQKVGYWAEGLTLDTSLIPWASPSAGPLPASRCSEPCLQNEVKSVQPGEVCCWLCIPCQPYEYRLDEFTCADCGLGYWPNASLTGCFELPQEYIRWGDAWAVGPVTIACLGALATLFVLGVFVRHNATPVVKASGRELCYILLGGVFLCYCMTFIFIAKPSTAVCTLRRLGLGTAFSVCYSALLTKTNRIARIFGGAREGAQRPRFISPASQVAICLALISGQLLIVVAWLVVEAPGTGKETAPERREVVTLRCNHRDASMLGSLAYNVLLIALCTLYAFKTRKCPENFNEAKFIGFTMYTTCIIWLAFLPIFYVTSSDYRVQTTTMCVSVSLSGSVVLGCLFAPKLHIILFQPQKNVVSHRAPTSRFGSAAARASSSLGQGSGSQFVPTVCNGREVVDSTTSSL

[6] = target: T2, Metabotropic glutamate receptor 5 (Homo sapiens, UniProt P41594); assay: Allosteric activity at mGlu5 (unknown origin)
T2 sequence (P41594 whole entry): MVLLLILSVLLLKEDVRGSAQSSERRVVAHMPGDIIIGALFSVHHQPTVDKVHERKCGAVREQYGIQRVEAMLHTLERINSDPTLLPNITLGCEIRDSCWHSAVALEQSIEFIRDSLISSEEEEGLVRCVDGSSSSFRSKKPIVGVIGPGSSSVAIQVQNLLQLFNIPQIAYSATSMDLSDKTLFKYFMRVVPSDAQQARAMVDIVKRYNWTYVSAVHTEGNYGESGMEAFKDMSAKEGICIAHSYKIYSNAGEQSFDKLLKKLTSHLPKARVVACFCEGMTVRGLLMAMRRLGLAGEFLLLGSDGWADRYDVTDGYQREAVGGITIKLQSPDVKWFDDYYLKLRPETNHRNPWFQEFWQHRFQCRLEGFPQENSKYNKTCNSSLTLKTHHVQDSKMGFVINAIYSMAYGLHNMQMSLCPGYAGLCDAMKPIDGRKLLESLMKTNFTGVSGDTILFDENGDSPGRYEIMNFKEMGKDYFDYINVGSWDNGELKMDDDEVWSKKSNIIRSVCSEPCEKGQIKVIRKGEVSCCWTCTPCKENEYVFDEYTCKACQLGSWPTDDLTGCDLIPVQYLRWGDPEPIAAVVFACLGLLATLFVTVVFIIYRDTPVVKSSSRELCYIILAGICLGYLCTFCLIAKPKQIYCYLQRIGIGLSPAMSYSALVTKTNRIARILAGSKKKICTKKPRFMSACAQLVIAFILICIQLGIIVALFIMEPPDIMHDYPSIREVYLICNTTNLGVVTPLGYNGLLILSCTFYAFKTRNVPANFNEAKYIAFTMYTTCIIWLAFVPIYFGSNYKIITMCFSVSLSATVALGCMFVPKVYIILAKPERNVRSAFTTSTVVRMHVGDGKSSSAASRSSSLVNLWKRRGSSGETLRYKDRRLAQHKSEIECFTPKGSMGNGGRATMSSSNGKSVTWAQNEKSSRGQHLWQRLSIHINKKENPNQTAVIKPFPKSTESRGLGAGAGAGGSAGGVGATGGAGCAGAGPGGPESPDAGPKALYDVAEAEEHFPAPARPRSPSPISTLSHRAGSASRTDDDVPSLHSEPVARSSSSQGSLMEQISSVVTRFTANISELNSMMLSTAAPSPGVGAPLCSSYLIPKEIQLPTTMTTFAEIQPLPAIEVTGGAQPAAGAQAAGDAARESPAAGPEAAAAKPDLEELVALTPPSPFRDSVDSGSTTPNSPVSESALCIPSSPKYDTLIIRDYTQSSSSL

[7] = target: Metabotropic glutamate receptor 6 (Homo sapiens, UniProt O15303); assay: Allosteric activity at mGlu6 (unknown origin)
Chain of Metabotropic glutamate receptor 6 (O15303 whole entry): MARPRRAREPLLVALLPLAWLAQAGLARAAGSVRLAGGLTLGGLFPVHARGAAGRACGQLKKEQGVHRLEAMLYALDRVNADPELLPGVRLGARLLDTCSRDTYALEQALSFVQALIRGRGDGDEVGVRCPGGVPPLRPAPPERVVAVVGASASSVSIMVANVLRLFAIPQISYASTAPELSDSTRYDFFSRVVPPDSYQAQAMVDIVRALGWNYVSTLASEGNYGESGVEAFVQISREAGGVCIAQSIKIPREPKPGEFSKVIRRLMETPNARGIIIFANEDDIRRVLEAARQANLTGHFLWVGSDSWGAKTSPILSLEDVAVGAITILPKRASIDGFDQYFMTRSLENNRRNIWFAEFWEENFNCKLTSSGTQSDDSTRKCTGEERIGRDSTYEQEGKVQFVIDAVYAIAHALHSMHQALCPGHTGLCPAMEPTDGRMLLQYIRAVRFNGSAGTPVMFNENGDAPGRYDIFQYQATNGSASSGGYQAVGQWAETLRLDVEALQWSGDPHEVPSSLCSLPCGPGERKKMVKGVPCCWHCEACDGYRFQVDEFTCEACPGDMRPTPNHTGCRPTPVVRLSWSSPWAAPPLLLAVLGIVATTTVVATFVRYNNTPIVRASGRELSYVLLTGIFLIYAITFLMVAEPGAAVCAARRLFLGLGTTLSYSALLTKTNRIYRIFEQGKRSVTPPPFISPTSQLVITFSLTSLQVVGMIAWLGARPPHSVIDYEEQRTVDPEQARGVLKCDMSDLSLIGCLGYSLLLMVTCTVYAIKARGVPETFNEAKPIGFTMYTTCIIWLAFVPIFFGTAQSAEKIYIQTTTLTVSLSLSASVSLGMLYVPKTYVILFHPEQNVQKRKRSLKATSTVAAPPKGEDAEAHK

[8] = target: T3, Metabotropic glutamate receptor 3 (Homo sapiens, UniProt Q14832); assay: Allosteric activity at mGlu3 (unknown origin)
T3 sequence (Q14832 whole entry): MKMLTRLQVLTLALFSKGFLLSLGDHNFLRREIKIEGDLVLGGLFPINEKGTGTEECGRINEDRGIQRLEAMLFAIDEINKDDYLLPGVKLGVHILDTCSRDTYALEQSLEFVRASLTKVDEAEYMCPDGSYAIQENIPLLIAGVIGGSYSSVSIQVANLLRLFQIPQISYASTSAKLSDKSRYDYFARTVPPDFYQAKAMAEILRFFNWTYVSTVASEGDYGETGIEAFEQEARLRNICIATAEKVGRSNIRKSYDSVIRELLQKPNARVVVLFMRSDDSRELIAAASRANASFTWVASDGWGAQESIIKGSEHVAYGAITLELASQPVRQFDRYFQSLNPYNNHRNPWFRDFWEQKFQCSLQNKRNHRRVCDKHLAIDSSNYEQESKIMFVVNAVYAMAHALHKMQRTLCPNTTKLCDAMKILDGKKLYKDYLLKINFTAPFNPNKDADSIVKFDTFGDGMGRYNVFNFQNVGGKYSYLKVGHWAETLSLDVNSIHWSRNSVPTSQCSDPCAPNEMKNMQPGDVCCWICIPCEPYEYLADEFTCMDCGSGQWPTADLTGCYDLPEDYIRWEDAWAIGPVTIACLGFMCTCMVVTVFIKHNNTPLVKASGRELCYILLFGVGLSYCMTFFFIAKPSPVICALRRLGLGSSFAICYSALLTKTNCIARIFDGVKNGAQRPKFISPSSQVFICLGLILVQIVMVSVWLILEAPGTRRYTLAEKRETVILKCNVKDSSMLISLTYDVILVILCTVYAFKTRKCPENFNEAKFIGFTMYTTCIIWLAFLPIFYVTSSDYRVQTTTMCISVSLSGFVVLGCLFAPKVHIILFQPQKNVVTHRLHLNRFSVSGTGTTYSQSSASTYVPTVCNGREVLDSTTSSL

[9] = […], Kp in mouse at 10 mg/kg, ip after 1 hr; assay type: ADME, organism-based; details: in vivo
[10] = target: Metabotropic glutamate receptor 1 (Homo sapiens, UniProt Q13255); assay: Allosteric activity at mGlu1 (unknown origin)
[11] = target: Metabotropic glutamate receptor 7 (Mus musculus, UniProt Q68ED2); assay: Agonist activity at mouse mGlu7
Chain of Metabotropic glutamate receptor 7 (Mus musculus, UniProt Q68ED2) (Q68ED2 whole entry): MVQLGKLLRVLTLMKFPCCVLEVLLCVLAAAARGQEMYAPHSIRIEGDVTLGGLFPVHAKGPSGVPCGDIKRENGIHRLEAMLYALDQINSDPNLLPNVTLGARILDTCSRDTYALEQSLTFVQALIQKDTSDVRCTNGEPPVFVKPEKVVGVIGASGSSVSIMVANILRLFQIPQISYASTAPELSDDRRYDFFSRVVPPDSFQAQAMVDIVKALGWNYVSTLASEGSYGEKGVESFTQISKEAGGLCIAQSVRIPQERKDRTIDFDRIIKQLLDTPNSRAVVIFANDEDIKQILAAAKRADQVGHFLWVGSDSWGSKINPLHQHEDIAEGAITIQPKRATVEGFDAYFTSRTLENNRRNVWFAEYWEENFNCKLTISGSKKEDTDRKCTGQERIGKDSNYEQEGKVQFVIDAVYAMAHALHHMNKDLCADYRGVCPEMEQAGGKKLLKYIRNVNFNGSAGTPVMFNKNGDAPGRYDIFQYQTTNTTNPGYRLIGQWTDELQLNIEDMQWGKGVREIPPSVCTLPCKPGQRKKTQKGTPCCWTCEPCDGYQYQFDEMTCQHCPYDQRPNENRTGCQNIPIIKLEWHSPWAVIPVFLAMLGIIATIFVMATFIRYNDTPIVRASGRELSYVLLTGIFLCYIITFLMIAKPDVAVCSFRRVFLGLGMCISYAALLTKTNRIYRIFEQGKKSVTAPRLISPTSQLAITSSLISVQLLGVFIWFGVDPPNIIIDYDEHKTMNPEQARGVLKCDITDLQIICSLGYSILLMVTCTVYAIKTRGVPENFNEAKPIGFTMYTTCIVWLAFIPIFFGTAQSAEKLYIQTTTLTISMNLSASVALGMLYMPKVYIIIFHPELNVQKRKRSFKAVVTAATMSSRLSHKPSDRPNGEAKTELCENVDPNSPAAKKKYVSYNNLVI

[12] = target: T1, Metabotropic glutamate receptor 7; assay: Agonist activity at human mGlu7
[13] = target: T1, Metabotropic glutamate receptor 7; assay: Negative allosteric modulator activity at human mGlu7 assessed as reduction in Ca2+ mobilization by HTS assay; assay type: functional
[14] = Lipophilicity, logP of the compound; assay type: physicochemical; details: octanol/water
[15] = target: T1, Metabotropic glutamate receptor 7; assay: Allosteric agonist activity at human mGlu7 expressed in CHO cells assessed as reduction in forskolin-induced cAMP production after 30 mins by cAMP reagent-based assay relative to control; assay type: functional, cell-based
[16] = target: T1, Metabotropic glutamate receptor 7; assay: Allosteric agonist activity at human mGlu7 expressed in CHO cells assessed as reduction in forskolin-induced cAMP production after 30 mins by cAMP reagent-based assay; assay type: functional, cell-based
[17] = target: T2, Metabotropic glutamate receptor 5; assay: Allosteric agonist activity at human mGlu5 expressed in CHO cells assessed as reduction in forskolin-induced cAMP production after 30 mins by cAMP reagent-based assay; assay type: functional, cell-based
[18] = target: T3, Metabotropic glutamate receptor 3; assay: Allosteric agonist activity at human mGlu3 expressed in CHO cells assessed as reduction in forskolin-induced cAMP production after 30 mins by cAMP reagent-based assay; assay type: functional, cell-based

T1 sequence (Q14831 whole entry): as the sequence (Q68ED2 whole entry) above, with G5R, V27A, T488S, P520A, N578D counted along it

EC50 [1]: 0.00121 µM
SMILES: C[C@H](C(=O)NC1COc2ccc(F)cc2C1O)c1ccccc1 (stereo not given in full)

EC50 [2]: 2.1 µM
SMILES: CCc1nn2c(C(F)(F)F)cc(C)nc2c1-c1cc(F)c(OC)cc1F

EC50 [3]: 0.001 µM
SMILES: O=C(C[C@H](NCC1CC1)c1ccccc1)N1CCCOc2ccccc21

EC50 [4]: 0.93 µM
SMILES: COC(=O)c1ccc(-n2c(C)cc(C(=O)CSc3ccc(NC(C)=O)cc3)c2C)cc1

EC50 [5]: > 10 µM
IC50 [5]: > 10 µM
EC50 [6]: > 10 µM
IC50 [6]: > 10 µM
EC50 [7]: > 10 µM
IC50 [7]: > 10 µM
EC50 [8]: > 10 µM
IC50 [8]: > 10 µM
Kp at 1 h [9]: 2.1
EC50 [10]: > 10 µM
IC50 [10]: > 10 µM
SMILES: COc1ccc(-c2c(C)nn3c(C(F)(F)F)cc(C)nc23)c(F)c1F

EC50 [11]: 0.0018 µM
EC50 [12]: 0.0069 µM
SMILES: C[C@H](C(=O)NC1COc2ccccc2C1S(C)(=O)=O)c1ccc(F)cc1 (stereo not given in full)

IC50 [13]: 0.063 µM
SMILES: CCc1nc2c(o1)CC(c1ccc(C)cc1C)CC2=O (stereo not given)

logP [14]: 5.9
Emax [15]: 62%
EC50 [16]: 0.158 µM
SMILES: c1ccc(C(NCCNC(c2ccccc2)c2ccccc2)c2ccccc2)cc1

EC50 [1]: 0.0292 µM
SMILES: O=C(NCc1ccccc1F)C1c2ccccc2CC(=O)N1CC1CC1 (stereo not given)

EC50 [17]: 0.631 µM
pEC50 [18]: 6.2
SMILES: CNC(=O)N1CCCC(CN2CCC(OC(c3ccccc3)c3ccccc3)CC2)C1 (stereo not given)

logP [14]: 3
SMILES: CNCC[C@H](NCC(=O)N1CCCc2ccccc21)c1ccccc1
